Assay results taken from patent US20190248834A1, “ENDOMORPHIN-2, TETRAPEPTIDE DERIVATIVES THEREOF, AND USES THEREOF” (priority 2016, published 2019).
Non-standard residues stand in square brackets, D forms with d. pGlu = O=C1CC[C@@H](C(=O)O)N1

Columns and labels:
Format in all cases: in vivo, human
[1] = test system: chronic right shoulder pain; test: Example 7: analgesic effect on shoulder pain, topical
Description: A subject had chronic right shoulder pain. The subject was unable to lift their arm above chest level. The subject topically applied an anhydrous solution composition containing 0.5% (w/v) N-Ac-Tyr-Pro-Phe-Phe-NH2(SEQ ID NO: 23) in EP73, formulated as described in the Example 2, on their right shoulder at night. The next morning, 70% relief of pain was observed. The subject re-applied the composition at bedtime. The following morning, 85-90% relief was observed and they were able to lift their arm above their head with only minor discomfort.

[2] = test system: chronic arthritic pain of left ankle; test: Example 9: analgesic effect on ankle pain, topical
Description: A subject had chronic arthritic pain of their left ankle. They were previously treated with prescription corticosteroid injections.
The subject topically applied an anhydrous composition containing 0.5% (w/v) N-Ac-Tyr-Pro-Phe-Phe-NH2 (SEQ ID NO: 23) in EP73, formulated as described in Example 2, at bedtime. The next morning, they observed approximately 90% improvement of pain. The subject topically re-applied the same composition at bedtime. The following entire day, they had about 95% pain improvement.

severe migraine = test: Example 13: analgesic effect on chronic migraine headache, topical; conditions: 1% (w/v) in WEP442, topical
Description: One late afternoon, the subject developed severe pain in those areas, accompanied by feelings of vertigo and nausea. The subject topically applied a composition containing 1% (w/v) N-Ac-Tyr-Pro-Phe-Phe-NH2, (SEQ ID NO: 23) in WEP442 to the entire occipital scalp, including the peri-auricular areas.

[3] = test system: severe arthritis of the left hip; test: Example 18: analgesic effect on arthritic hip, topical
Procedure: A subject had severe arthritis of the left hip with pain and inflammation for 6 months.
The subject topically applied a composition containing 0.7% (w/v) N-Ac-Tyr-Pro-Phe-Phe-NH2 (SEQ ID NO: 23) in WEP442 to the left hip and covered the hip with plastic wrap overnight. The pain reduced about 50% in 8 hours. The samen procedure was repeated the following day. […] The analgesic effect observed was 100% improvement as judged by clinical evaluation.

[4] = test system: very severe headaches with nausea and vomiting; test: Example 24: analgesic effect on severe headaches, topical
Description: A subject had very severe headaches and associated nausea and vomiting, which occurred 1-2 times weekly. […] Over this interval, the frequency of headaches decreased to every 7-10 days, and the intensity of pain at the onset of each episode was diminished.

sunburn pain = test: Example 30: analgesic effect on sunburn pain, topical; conditions: 1% (w/v) in WEP442, topical
Description: A subject with severe sunburn of their anterior legs the day after exposure to sunlight without sunscreen protection, topically applied a composition containing 1% (w/v) of N-Ac-Tyr-Pro-Phe-Phe-NH2 (SEQ ID NO: 23) in WEP442 to both legs.

[5] = test system: traumatized right big toe; test: Example 34: analgesic effect on pain in big toe following trauma, topical; conditions: 1% (w/v) in WEP442, topical
Procedure: A subject, traumatized their right big toe while repositioning heavy furniture, and experienced disabling persistent pain of that toe. About 10 minutes after the trauma occurred, they topically applied a composition containing 1% (w/v) of N-Ac-Tyr-Pro-Phe-Phe-NH2 (SEQ ID NO: 23) in WEP442 to the toe.

tennis elbow pain = test: Example 68: analgesic effect on tennis elbow pain, topical
Description: A person who played tennis recreationally for several decades developed increasingly severe pain in the elbow of their right arm. Two acupuncture treatments provided partial relief. […] They now play tennis with no pain.

stress induced headache = test: Example 51: analgesic effect on stress induced headache, topical
Description: The onset of the headache was associated with emotional stress. Within two hours, the intensity of the headache became almost disabling, whereupon […] applied a solution composition containing 1% (w/v) N-Pg-Ty-Pro-Phe-Phe-NH2 (SEQ ID NO: 44) in WEP442 to the entire frontal and upper facial areas. […] At that time, the solution was generously applied a second time. […] The analgesic effect was judged to be 100%.

[6] = test system: chronic osteoarthritis of the knees; test: Example 53: comparative analgesic efficacy in topical treatment of knee osteoarthritis; conditions: 1% (w/v) in WEP442, maintenance treatment twice daily
Procedure: A subject with chronic osteoarthritis of the knees participated in this study. Each tetrapeptide derivative was dissolved in WEP442 to make a 1% (w/v) solution. Early in the morning, the solution was applied to a knee, which was immediately wrapped in plastic film from a roll 5 inches wide. The film wrap was left in place for about 7-8 hours, and then it was removed. Such application was repeated at bedtime and removed several hours later during the night. Each 1% (w/v) solution of tetrapeptide derivative was so applied for 2 days and efficacy was evaluated by the subject. No topical treatment was made during an ensuing interval of 2-3 days, at which time treatment with a 1% (w/v) solution of another derivative was initiated and carried out as described above. In total, six tetrapeptide derivatives were evaluated for analgesic efficacy.
The following tetrapeptide derivative was judged to provide 2+ to 3+ pain relief by clinical evaluation: N-Pa-Tyr-Pro-Phe-Phe-NH2(SEQ ID NO: 64).
After the above evaluation period, maintenance treatment was done with a composition containing 1% (w/v) of N-Pg-Tyr-Pro-Phe-Phe-NH2 (SEQ ID NO: 44) in WEP442 applied twice daily.

headache = test: Example 65: analgesic effect on headache, topical; conditions: 0.6% (w/v) in WEP442, topical
Description: Several days after the incident causing the injury, they developed a bothersome headache, concentrated to the temporal areas.

## CC(=O)N[C@@H](Cc1ccc(O)cc1)C(=O)N1CCC[C@H]1C(=O)N[C@@H](Cc1ccccc1)C(=O)N[C@@H](Cc1ccccc1)C(N)=O [N-Ac-Tyr-Pro-Phe-Phe-NH2]
[1]; 0.5% (w/v) in EP73, re-applied at bedtime, following morning
  relief of pain: 85-90%
[1]; 0.5% (w/v) in EP73, topical at night, next morning
  relief of pain: 70%
[2]; 0.5% (w/v) in EP73, re-applied at bedtime, following entire day
  pain improvement: about 95%
[2]; 0.5% (w/v) in EP73, topical at bedtime, next morning
  improvement of pain: approximately 90%
Severe migraine
  pain relief: all pain and other symptoms disappeared
  recurrence: no recurrence of any migraine headache during the next week
  time to pain relief: ≤ 5 min
[3]; 0.7% (w/v) in WEP442, procedure repeated the following day, another 8 hours
  improvement by clinical evaluation: 100%
[3]; 0.7% (w/v) in WEP442, under plastic wrap overnight, in 8 hours
  pain reduction: about 50%
[4]; 1% (w/v) in WEP442, repeated uses over 3 months, before: 1-2 times weekly
  frequency of headaches (interval between headaches): 7 to 10 days
[4]; 1% (w/v) in WEP442, topical
  time to pain relief: 3 to 4 min
[4]; 1% (w/v) in WEP442, topical at onset of symptoms
  pain relief: completely relieve pain and any associated symptoms
Sunburn pain
  duration of pain relief: about 3 hours
  pain relief: completely relieved almost instantly
[5]
  pain relief: Complete relief of pain
  recurrence: did not return
  time to pain relief: 15 to 30 s
Tennis elbow pain; 0.5% (w/v) in WEP442, about 1 week of several applications daily
  range of arm motion: returned to normal
Tennis elbow pain; 0.5% (w/v) in WEP442, topical
  pain relief: substantial relief of pain
  time to pain relief: 2 to 4 min

## N-Pg-Tyr-Pro-Phe-Phe-NH2 ([pGlu]YPFF-NH2; SMILES NC(=O)[C@H](Cc1ccccc1)NC(=O)[C@H](Cc1ccccc1)NC(=O)[C@@H]1CCCN1C(=O)[C@H](Cc1ccc(O)cc1)NC(=O)[C@@H]1CCC(=O)N1)
Stress induced headache; 1% (w/v) in WEP442, first application, within about 5 minutes
  headache intensity: diminished in intensity
Stress induced headache; 1% (w/v) in WEP442, second application, within another 5 minutes
  pain relief: free of all headache pain
Stress induced headache; 1% (w/v) in WEP442, topical
  analgesic effect: 100%
  time without return of pain: ≥ 24 h
[6]
  knee pain compared to several months earlier: the knee pain was substantially less
headache
  headache relief: almost immediate, complete relief of the headache
